Numbers after ± are expanded uncertainties.
Settings: Liquid; for mass density: 298.15 K, 101.33 kPa, Vibrating tube method; for Normal boiling temperature: Ebulliometric method (Recirculating still)

Structure (SMILES)	mass density [kg/m3]	Normal boiling temperature [°C]
CC(=O)O [acetic acid]	1042.5 ± 0.2	117.88 ± 0.2
O [water]	997.8 ± 0.2	100.00 ± 0.2

From the NIST ThermoML archive (doi:10.1016/j.fluid.2013.11.036)
